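Grown in 96-well plates, cells were treated for 48 hours with each compound at five concentrations. Insufficient inhibition: endpoint recorded as highest concentration tested. GI50 marks 50% less growth. TGI is the concentration that stops growth completely.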
Tests used:
Assay in all cases: NCI-60 cell line screen, 48 h
786-0 renal = system: 786-0 renal
A498 renal = system: A498 renal
A549 NSCLC = system: A549 NSCLC
ACHN renal = system: ACHN renal
BT-549 breast = system: BT-549 breast
CAKI-1 renal = system: CAKI-1 renal
CCRF-CEM leukemia = system: CCRF-CEM leukemia
COLO 205 colon = system: COLO 205 colon
DU-145 prostate = system: DU-145 prostate
EKVX NSCLC = system: EKVX NSCLC
HCC-2998 colon = system: HCC-2998 colon
HCT-116 colon = system: HCT-116 colon
HCT-15 colon = system: HCT-15 colon
HL-60(TB) leukemia = system: HL-60(TB) leukemia
HOP-62 NSCLC = system: HOP-62 NSCLC
HOP-92 NSCLC = system: HOP-92 NSCLC
HS 578T breast = system: HS 578T breast
HT29 colon = system: HT29 colon
IGROV1 ovarian = system: IGROV1 ovarian
K-562 leukemia = system: K-562 leukemia
KM12 colon = system: KM12 colon
LOX IMVI melanoma = system: LOX IMVI melanoma
M14 melanoma = system: M14 melanoma
MALME-3M melanoma = system: MALME-3M melanoma
MCF7 breast = system: MCF7 breast
MDA-MB-231 breast = system: MDA-MB-231 breast
MDA-MB-435 = system: MDA-MB-435
MOLT-4 leukemia = system: MOLT-4 leukemia
NCI-H226 lung = system: NCI-H226 lung
NCI-H23 lung = system: NCI-H23 lung
NCI-H460 lung = system: NCI-H460 lung
NCI-H522 lung = system: NCI-H522 lung
NCI/ADR-RES ovarian = system: NCI/ADR-RES ovarian
OVCAR-3 ovarian = system: OVCAR-3 ovarian
OVCAR-4 ovarian = system: OVCAR-4 ovarian
OVCAR-5 ovarian = system: OVCAR-5 ovarian
OVCAR-8 ovarian = system: OVCAR-8 ovarian
PC-3 prostate = system: PC-3 prostate
RPMI-8226 leukemia = system: RPMI-8226 leukemia
RXF 393 renal = system: RXF 393 renal
SF-268 CNS = system: SF-268 CNS
SF-295 CNS = system: SF-295 CNS
SF-539 CNS = system: SF-539 CNS
SK-MEL-2 melanoma = system: SK-MEL-2 melanoma
SK-MEL-28 melanoma = system: SK-MEL-28 melanoma
SK-MEL-5 melanoma = system: SK-MEL-5 melanoma
SK-OV-3 ovarian = system: SK-OV-3 ovarian
SN12C renal = system: SN12C renal
SNB-19 CNS = system: SNB-19 CNS
SNB-75 CNS = system: SNB-75 CNS
SR leukemia = system: SR leukemia
SW-620 colon = system: SW-620 colon
T-47D breast = system: T-47D breast
TK-10 renal = system: TK-10 renal
U251 CNS = system: U251 CNS
UACC-257 melanoma = system: UACC-257 melanoma
UACC-62 melanoma = system: UACC-62 melanoma
UO-31 renal = system: UO-31 renal

## O=C1NC(=O)C(c2ccc(Cl)cc2)=C1Nc1ccc(Cl)c(C(=O)O)c1
786-0 renal
  GI50: > 25 µM
  TGI: > 25 µM
A498 renal
  GI50: > 25 µM
  TGI: > 25 µM
A549 NSCLC
  GI50: > 25 µM
  TGI: > 25 µM
ACHN renal
  GI50: > 25 µM
  TGI: > 25 µM
BT-549 breast
  GI50: > 25 µM
  TGI: > 25 µM
CAKI-1 renal
  GI50: > 25 µM
  TGI: > 25 µM
CCRF-CEM leukemia
  GI50: > 25 µM
  TGI: > 25 µM
COLO 205 colon
  GI50: > 25 µM
  TGI: > 25 µM
DU-145 prostate
  GI50: > 25 µM
  TGI: > 25 µM
EKVX NSCLC
  GI50: > 25 µM
  TGI: > 25 µM
HCC-2998 colon
  GI50: > 25 µM
  TGI: > 25 µM
HCT-116 colon
  GI50: > 25 µM
  TGI: > 25 µM
HCT-15 colon
  GI50: > 25 µM
  TGI: > 25 µM
HL-60(TB) leukemia
  GI50: > 25 µM
  TGI: > 25 µM
HOP-62 NSCLC
  GI50: > 25 µM
  TGI: > 25 µM
HOP-92 NSCLC
  GI50: > 25 µM
  TGI: > 25 µM
HS 578T breast
  GI50: > 25 µM
  TGI: > 25 µM
HT29 colon
  GI50: > 25 µM
  TGI: > 25 µM
IGROV1 ovarian
  GI50: > 25 µM
  TGI: > 25 µM
K-562 leukemia
  GI50: > 25 µM
  TGI: > 25 µM
KM12 colon
  GI50: > 25 µM
  TGI: > 25 µM
LOX IMVI melanoma
  GI50: > 25 µM
  TGI: > 25 µM
M14 melanoma
  GI50: > 25 µM
  TGI: > 25 µM
MALME-3M melanoma
  GI50: > 25 µM
  TGI: > 25 µM
MCF7 breast
  GI50: > 25 µM
  TGI: > 25 µM
MDA-MB-231 breast
  GI50: > 25 µM
  TGI: > 25 µM
MDA-MB-435
  GI50: > 25 µM
  TGI: > 25 µM
MOLT-4 leukemia
  GI50: > 25 µM
  TGI: > 25 µM
NCI-H226 lung
  GI50: > 25 µM
  TGI: > 25 µM
NCI-H23 lung
  GI50: > 25 µM
  TGI: > 25 µM
NCI-H460 lung
  GI50: > 25 µM
  TGI: > 25 µM
NCI-H522 lung
  GI50: > 25 µM
  TGI: > 25 µM
NCI/ADR-RES ovarian
  GI50: > 25 µM
  TGI: > 25 µM
OVCAR-3 ovarian
  GI50: > 25 µM
  TGI: > 25 µM
OVCAR-4 ovarian
  GI50: > 25 µM
  TGI: > 25 µM
OVCAR-5 ovarian
  GI50: > 25 µM
  TGI: > 25 µM
OVCAR-8 ovarian
  GI50: > 25 µM
  TGI: > 25 µM
PC-3 prostate
  GI50: > 25 µM
  TGI: > 25 µM
RPMI-8226 leukemia
  GI50: > 25 µM
  TGI: > 25 µM
RXF 393 renal
  GI50: > 25 µM
  TGI: > 25 µM
SF-268 CNS
  GI50: > 25 µM
  TGI: > 25 µM
SF-295 CNS
  GI50: > 25 µM
  TGI: > 25 µM
SF-539 CNS
  GI50: > 25 µM
  TGI: > 25 µM
SK-MEL-2 melanoma
  GI50: > 25 µM
  TGI: > 25 µM
SK-MEL-28 melanoma
  GI50: > 25 µM
  TGI: > 25 µM
SK-MEL-5 melanoma
  GI50: > 25 µM
  TGI: > 25 µM
SK-OV-3 ovarian
  GI50: > 25 µM
  TGI: > 25 µM
SN12C renal
  GI50: > 25 µM
  TGI: > 25 µM
SNB-19 CNS
  GI50: > 25 µM
  TGI: > 25 µM
SNB-75 CNS
  GI50: > 25 µM
  TGI: > 25 µM
SR leukemia
  GI50: > 25 µM
  TGI: > 25 µM
SW-620 colon
  GI50: > 25 µM
  TGI: > 25 µM
T-47D breast
  GI50: > 25 µM
  TGI: > 25 µM
TK-10 renal
  GI50: > 25 µM
  TGI: > 25 µM
U251 CNS
  GI50: > 25 µM
  TGI: > 25 µM
UACC-257 melanoma
  GI50: > 25 µM
  TGI: > 25 µM
UACC-62 melanoma
  GI50: > 25 µM
  TGI: > 25 µM
UO-31 renal
  GI50: > 25 µM
  TGI: > 25 µM
